Test results taken from PubChem BioAssay (NCI).
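All cell lines were grown in 96-well plates and treated with compound for 48 hours. Here, GI50 denotes the concentration required for 50% inhibition of growth. TGI denotes the concentration required for complete inhibition of growth.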

Legend:
Test in all cases: growth of human tumour cells (NCI), 48 h
786-0 renal = test system: 786-0 renal
A498 renal = test system: A498 renal
A549 NSCLC = test system: A549 NSCLC
ACHN renal = test system: ACHN renal
BT-549 breast = test system: BT-549 breast
CAKI-1 renal = test system: CAKI-1 renal
CCRF-CEM leukemia = test system: CCRF-CEM leukemia
COLO 205 colon = test system: COLO 205 colon
DU-145 prostate = test system: DU-145 prostate
EKVX NSCLC = test system: EKVX NSCLC
HCC-2998 colon = test system: HCC-2998 colon
HCT-116 colon = test system: HCT-116 colon
HCT-15 colon = test system: HCT-15 colon
HL-60(TB) leukemia = test system: HL-60(TB) leukemia
HOP-62 NSCLC = test system: HOP-62 NSCLC
HOP-92 NSCLC = test system: HOP-92 NSCLC
HS 578T breast = test system: HS 578T breast
HT29 colon = test system: HT29 colon
IGROV1 ovarian = test system: IGROV1 ovarian
K-562 leukemia = test system: K-562 leukemia
KM12 colon = test system: KM12 colon
LOX IMVI melanoma = test system: LOX IMVI melanoma
M14 melanoma = test system: M14 melanoma
MALME-3M melanoma = test system: MALME-3M melanoma
MCF7 breast = test system: MCF7 breast
MDA-MB-231 breast = test system: MDA-MB-231 breast
MDA-MB-435 = test system: MDA-MB-435
MOLT-4 leukemia = test system: MOLT-4 leukemia
NCI-H226 lung = test system: NCI-H226 lung
NCI-H23 lung = test system: NCI-H23 lung
NCI-H460 lung = test system: NCI-H460 lung
NCI-H522 lung = test system: NCI-H522 lung
NCI/ADR-RES ovarian = test system: NCI/ADR-RES ovarian
OVCAR-3 ovarian = test system: OVCAR-3 ovarian
OVCAR-4 ovarian = test system: OVCAR-4 ovarian
OVCAR-5 ovarian = test system: OVCAR-5 ovarian
OVCAR-8 ovarian = test system: OVCAR-8 ovarian
PC-3 prostate = test system: PC-3 prostate
RPMI-8226 leukemia = test system: RPMI-8226 leukemia
RXF 393 renal = test system: RXF 393 renal
SF-268 CNS = test system: SF-268 CNS
SF-295 CNS = test system: SF-295 CNS
SF-539 CNS = test system: SF-539 CNS
SK-MEL-2 melanoma = test system: SK-MEL-2 melanoma
SK-MEL-28 melanoma = test system: SK-MEL-28 melanoma
SK-MEL-5 melanoma = test system: SK-MEL-5 melanoma
SK-OV-3 ovarian = test system: SK-OV-3 ovarian
SN12C renal = test system: SN12C renal
SNB-19 CNS = test system: SNB-19 CNS
SNB-75 CNS = test system: SNB-75 CNS
SR leukemia = test system: SR leukemia
SW-620 colon = test system: SW-620 colon
T-47D breast = test system: T-47D breast
TK-10 renal = test system: TK-10 renal
U251 CNS = test system: U251 CNS
UACC-257 melanoma = test system: UACC-257 melanoma
UACC-62 melanoma = test system: UACC-62 melanoma
UO-31 renal = test system: UO-31 renal

With `O=C(Nc1ccc([As]=[As]c2ccc(NC(=O)c3ccccc3)cc2)cc1)c1ccccc1` (stereo unspecified) as the compound, how does the GI50 (786-0 renal) read?
Its GI50 is 454 nM.

What about the TGI (786-0 renal) of the same compound?
Its TGI is 1670 nM.

What about the GI50 (A498 renal) of the same compound?
The GI50 was 1150 nM.

What about the TGI (A498 renal) of the same compound?
Its TGI is 2360 nM.

And the GI50 (A549 NSCLC)?
Its GI50 is 1840 nM.

What about the TGI (A549 NSCLC) of the same compound?
The TGI was 3590 nM.

And the GI50 (ACHN renal)?
The GI50 was 1190 nM.

And the TGI (ACHN renal)?
The TGI was 2450 nM.

And the GI50 (BT-549 breast)?
The GI50 was 343 nM.

What about the TGI (BT-549 breast) of the same compound?
Its TGI is 1190 nM.

And the GI50 (CAKI-1 renal)?
The GI50 was 582 nM.

And the TGI (CAKI-1 renal)?
The TGI was 1890 nM.

And the GI50 (CCRF-CEM leukemia)?
The GI50 was 136 nM.

And the TGI (CCRF-CEM leukemia)?
The TGI was 428 nM.

And the GI50 (COLO 205 colon)?
The GI50 was 239 nM.

And the TGI (COLO 205 colon)?
The TGI was 769 nM.

And the GI50 (DU-145 prostate)?
The GI50 was 1440 nM.

And the TGI (DU-145 prostate)?
Its TGI is 2750 nM.

And the GI50 (EKVX NSCLC)?
The GI50 was 1180 nM.

What about the TGI (EKVX NSCLC) of the same compound?
The TGI was 2640 nM.

What about the GI50 (HCC-2998 colon) of the same compound?
Its GI50 is 1240 nM.

What about the TGI (HCC-2998 colon) of the same compound?
The TGI was 2500 nM.

What about the GI50 (HCT-116 colon) of the same compound?
Its GI50 is 234 nM.

And the TGI (HCT-116 colon)?
The TGI was 624 nM.

And the GI50 (HCT-15 colon)?
Its GI50 is 302 nM.

And the TGI (HCT-15 colon)?
The TGI was 1360 nM.

What about the GI50 (HL-60(TB) leukemia) of the same compound?
The GI50 was 328 nM.

And the TGI (HL-60(TB) leukemia)?
The TGI was 2090 nM.

And the GI50 (HOP-62 NSCLC)?
Its GI50 is 1240 nM.

What about the TGI (HOP-62 NSCLC) of the same compound?
Its TGI is 2640 nM.

What about the GI50 (HOP-92 NSCLC) of the same compound?
The GI50 was 179 nM.

What about the TGI (HOP-92 NSCLC) of the same compound?
The TGI was 642 nM.

And the GI50 (HS 578T breast)?
Its GI50 is 478 nM.

What about the TGI (HS 578T breast) of the same compound?
Its TGI is 6320 nM.

And the GI50 (HT29 colon)?
Its GI50 is 1420 nM.

What about the TGI (HT29 colon) of the same compound?
Its TGI is 3440 nM.

What about the GI50 (IGROV1 ovarian) of the same compound?
The GI50 was 756 nM.

What about the TGI (IGROV1 ovarian) of the same compound?
The TGI was 2250 nM.

And the GI50 (K-562 leukemia)?
Its GI50 is 215 nM.

And the TGI (K-562 leukemia)?
Its TGI is 560 nM.

What about the GI50 (KM12 colon) of the same compound?
The GI50 was 1690 nM.

What about the TGI (KM12 colon) of the same compound?
The TGI was 3120 nM.

What about the GI50 (LOX IMVI melanoma) of the same compound?
Its GI50 is 262 nM.

What about the TGI (LOX IMVI melanoma) of the same compound?
The TGI was 786 nM.

And the GI50 (M14 melanoma)?
Its GI50 is 1130 nM.

And the TGI (M14 melanoma)?
Its TGI is 2490 nM.

And the GI50 (MALME-3M melanoma)?
Its GI50 is 184 nM.

And the TGI (MALME-3M melanoma)?
Its TGI is 571 nM.

And the GI50 (MCF7 breast)?
The GI50 was 208 nM.

And the TGI (MCF7 breast)?
The TGI was 547 nM.

What about the GI50 (MDA-MB-231 breast) of the same compound?
Its GI50 is 323 nM.

What about the TGI (MDA-MB-231 breast) of the same compound?
Its TGI is 1330 nM.

And the GI50 (MDA-MB-435)?
Its GI50 is 734 nM.

And the TGI (MDA-MB-435)?
The TGI was 2110 nM.

What about the GI50 (MOLT-4 leukemia) of the same compound?
The GI50 was 339 nM.

What about the TGI (MOLT-4 leukemia) of the same compound?
Its TGI is 1840 nM.

And the GI50 (NCI-H226 lung)?
Its GI50 is 662 nM.

And the TGI (NCI-H226 lung)?
The TGI was 1640 nM.

What about the GI50 (NCI-H23 lung) of the same compound?
Its GI50 is 391 nM.

And the TGI (NCI-H23 lung)?
Its TGI is 1480 nM.

What about the GI50 (NCI-H460 lung) of the same compound?
The GI50 was 2030 nM.

What about the TGI (NCI-H460 lung) of the same compound?
Its TGI is 4510 nM.

What about the GI50 (NCI-H522 lung) of the same compound?
The GI50 was 74.3 nM.

And the TGI (NCI-H522 lung)?
The TGI was 217 nM.

What about the GI50 (NCI/ADR-RES ovarian) of the same compound?
Its GI50 is 1320 nM.

What about the TGI (NCI/ADR-RES ovarian) of the same compound?
The TGI was 2650 nM.

What about the GI50 (OVCAR-3 ovarian) of the same compound?
Its GI50 is 285 nM.

And the TGI (OVCAR-3 ovarian)?
Its TGI is 812 nM.

And the GI50 (OVCAR-4 ovarian)?
Its GI50 is 466 nM.

And the TGI (OVCAR-4 ovarian)?
Its TGI is 1810 nM.

And the GI50 (OVCAR-5 ovarian)?
The GI50 was 1170 nM.

And the TGI (OVCAR-5 ovarian)?
The TGI was 2530 nM.

And the GI50 (OVCAR-8 ovarian)?
Its GI50 is 333 nM.

And the TGI (OVCAR-8 ovarian)?
Its TGI is 1220 nM.

And the GI50 (PC-3 prostate)?
The GI50 was 1180 nM.

What about the TGI (PC-3 prostate) of the same compound?
The TGI was 2460 nM.

What about the GI50 (RPMI-8226 leukemia) of the same compound?
The GI50 was 247 nM.

And the TGI (RPMI-8226 leukemia)?
The TGI was 728 nM.

And the GI50 (RXF 393 renal)?
The GI50 was 192 nM.

And the TGI (RXF 393 renal)?
Its TGI is 499 nM.

What about the GI50 (SF-268 CNS) of the same compound?
The GI50 was 424 nM.

And the TGI (SF-268 CNS)?
The TGI was 1590 nM.

And the GI50 (SF-295 CNS)?
The GI50 was 1510 nM.

What about the TGI (SF-295 CNS) of the same compound?
Its TGI is 3080 nM.

What about the GI50 (SF-539 CNS) of the same compound?
The GI50 was 381 nM.

And the TGI (SF-539 CNS)?
The TGI was 1530 nM.

And the GI50 (SK-MEL-2 melanoma)?
The GI50 was 334 nM.

And the TGI (SK-MEL-2 melanoma)?
The TGI was 1010 nM.

What about the GI50 (SK-MEL-28 melanoma) of the same compound?
Its GI50 is 214 nM.

And the TGI (SK-MEL-28 melanoma)?
Its TGI is 531 nM.

What about the GI50 (SK-MEL-5 melanoma) of the same compound?
The GI50 was 846 nM.

And the TGI (SK-MEL-5 melanoma)?
The TGI was 2100 nM.

And the GI50 (SK-OV-3 ovarian)?
Its GI50 is 1900 nM.

What about the TGI (SK-OV-3 ovarian) of the same compound?
The TGI was 3310 nM.

What about the GI50 (SN12C renal) of the same compound?
Its GI50 is 679 nM.

What about the TGI (SN12C renal) of the same compound?
Its TGI is 1980 nM.

What about the GI50 (SNB-19 CNS) of the same compound?
The GI50 was 1470 nM.

And the TGI (SNB-19 CNS)?
The TGI was 2840 nM.

And the GI50 (SNB-75 CNS)?
Its GI50 is 242 nM.

And the TGI (SNB-75 CNS)?
The TGI was 1510 nM.

What about the GI50 (SR leukemia) of the same compound?
The GI50 was 258 nM.

What about the TGI (SR leukemia) of the same compound?
The TGI was 751 nM.

What about the GI50 (SW-620 colon) of the same compound?
The GI50 was 227 nM.

What about the TGI (SW-620 colon) of the same compound?
The TGI was 740 nM.

What about the GI50 (T-47D breast) of the same compound?
Its GI50 is 173 nM.

What about the TGI (T-47D breast) of the same compound?
Its TGI is 493 nM.

What about the GI50 (TK-10 renal) of the same compound?
The GI50 was 329 nM.

And the TGI (TK-10 renal)?
The TGI was 1130 nM.

What about the GI50 (U251 CNS) of the same compound?
Its GI50 is 255 nM.

What about the TGI (U251 CNS) of the same compound?
The TGI was 716 nM.

And the GI50 (UACC-257 melanoma)?
The GI50 was 244 nM.

And the TGI (UACC-257 melanoma)?
Its TGI is 1010 nM.

And the GI50 (UACC-62 melanoma)?
The GI50 was 313 nM.

What about the TGI (UACC-62 melanoma) of the same compound?
The TGI was 1280 nM.

What about the GI50 (UO-31 renal) of the same compound?
The GI50 was 975 nM.

And the TGI (UO-31 renal)?
Its TGI is 2250 nM.
